# Measurements taken from article PMC12475274, “Harnessing indole scaffolds to identify small-molecule IRE1α inhibitors modulating XBP1 mRNA splicing” (Nature Communications, 2025).
# “And” between values parts separate entries of the source, which are not always exact repeats. Equal values may be shown once. Read-outs that look alike come from different tables or passages of the source.
# Legend:
# [1] = target: T1, phosphorylated IRE1α (p-IRE1α) (Homo sapiens, UniProt O75460); assay: FRET-based IRE1α RNase activity assay, phosphorylated IRE1α; assay type: biochemical
# T1 construct: Human IRE1α kinase and RNase domain (residues 547–977) was subcloned into pLIB plasmid; His tag (with TEV cleavage site) (N, cleaved yes); made in house; host or cells: Sf9 insect cells, baculovirus (Bac-to-Bac)
# Method: (§1) Human IRE1α kinase and RNase domain (residues 547–977) was subcloned into pLIB plasmid with a His tag and TEV cleavage site, and expressed using Bac-to-Bac expression system. The primers used are listed in Supplementary Table S3. The protein purification was performed following established procedures. Briefly, Sf9 cells were infected with baculovirus and incubated at 27 °C 110 rpm for 72 h. The cells were collected by centrifugation at 4000 × g for 15 min and the cell pellet was resuspended in lysis buffer (50 mM HEPES pH 7.5, 300 mM NaCl, 10% glycerol, 1 mM MgCl2, 1 mM TCEP, 5 mM imidazole), then supplemented with 1:10,000 benzonase (Sigma, E1014), 1 tablet/25 mL […]™ Protease Inhibitor Cocktail tablets (Sigma, S8830) and 1 mM PMSF before lysed by sonication at 4 °C. […] The protein elution was incubated with TEV protease to remove His tag at 4 °C overnight. Then the sample was diluted 1:6 in buffer (50 mM HEPES pH 7.5, 1 mM TCEP, 5% glycerol) and loaded onto a 5 mL pre-packaged Q HP anion exchange column (Cytiva, HiTrap Q HP) pre-equilibrated with QA buffer (50 mM HEPES pH 7.5, 50 mM NaCl, 1 mM TCEP, 5% glycerol). The unphosphorylated and phosphorylated protein was separated by eluting the protein with a very shallow gradient with 0-30% buffer QB (50 mM HEPES pH 7.5, 1 M NaCl, 1 mM TCEP, 5% glycerol) over 80 CV. Different peaks were collected separately and verified by LC-MS. The fully phosphorylated fraction was collected and further purified by size exclusion chromatography (Cytiva, HiLoad 16/600 Superdex 200 pg,) with SEC buffer (25 mM HEPES pH 7.5, 250 mM NaCl, 1 mM TCEP, 10% glycerol) and fractioned as monomeric peak. The rest protein fraction from the Q HP anion exchange column was incubated with Lambda protein phosphatase (New England BioLabs, P0753S) overnight at 4 °C, the dephosphorylation was confirmed by LC-MS. The unphosphorylated protein was further purified by size exclusion chromatography with the SEC buffer described above. The purified phosphorylated (p-IRE1α) and dephosphorylated (IRE1α) protein aliquots were stored at −80 °C for future usage.
# (§2) The dual-labeled RNA substrate with a FAM at 5’ and the BHQ-1 at 3’ containing the XBP1 sequence (5′FAM-[…]-3′BHQ1) was purchased from Integrated DNA Technologies (IDT). The FRET-based IRE1α RNase activity assay was carried out in reaction buffer containing 20 mM HEPES pH 7.5, 50 mM KOAc, 1 mM MgOAc2, 1 mM DTT, 0.05% v/v TritonX-100, at a total reaction volume of 20 μL in a 384-well black plate (4514, Corning). For unphosphorylated IRE1α (IRE1α), a final concentration of 40 nM IRE1α protein and 100 nM RNA substrate was used. For phosphorylated IRE1 (p-IRE1α), a final concentration of 4 nM p-IRE1α protein and 200 nM RNA substrate was used. The indicated compound and IRE1α protein were incubated for 30 min at room temperature before the substrate was added to the reaction. The plate was then kinetically read over one hour at room temperature using a TECAN Spark plate reader. The measurement was carried out using the fluorescence top reading mode at the excitation wavelength of 485 nm and the emission wavelength of 535 nm with a 10 nm excitation and emission bandwidth. The linear part of the reaction curve was adopted and fitted with sample linear regression to obtain the slope, and the slope was adopted to reflect the reaction rate. The inhibition % was calculated by using the equation: inhibition% = 100 × (slope of DMSO control – slope of the sample)/(slope of DMSO control – slope of blank control), DMSO control: DMSO with protein and RNA substrate; Blank control: DMSO with RNA substrate. The IC50 values were calculated using the concentration-response model in GraphPad Prism 9.
# [2] = target: T2, dephosphorylated IRE1α (547–977) (Homo sapiens, UniProt O75460); assay: FRET-based IRE1α RNase activity assay, dephosphorylated IRE1α; assay type: biochemical
# T2 construct: Human IRE1α kinase and RNase domain (residues 547–977) was subcloned into pLIB plasmid; His tag (with TEV cleavage site) (N, cleaved yes); made in house; host or cells: Sf9 insect cells, baculovirus (Bac-to-Bac)
# Method: as §1
# as §2, with “9. […]” for “9.”
# [3] = FRET assay, RNase activity, mean (± SEM), read-out: p-IRE1α IC50
# [4] = FRET assay, source data, unit from Fig. 3, read-out: p-IRE1a IC50, individual replicates (n1-n4)
# [5] = FRET assay, RNase activity, mean (± SEM), read-out: IRE1α IC50
# [6] = FRET assay, source data, unit from Fig. 3 / sheet Fig. 2b, read-out: IRE1a IC50, individual replicates (n1-n4)
# [7] = p-IRE1a, individual replicates (n1-n3), Supplementary Fig. 2b, 2c, read-out: IC50
# [8] = p-IRE1a, mean, Supplementary Fig. 2b, 2c, read-out: IC50, mean
# [9] = IRE1a, individual replicates (n1-n4), Supplementary Fig. 2b, 2c, read-out: IC50
# [10] = IRE1a, mean, Supplementary Fig. 2b, 2c, read-out: IC50, mean
# [11] = FRET assay, RNase activity, mean (± SEM)
# T2 sequence (O75460 547-977): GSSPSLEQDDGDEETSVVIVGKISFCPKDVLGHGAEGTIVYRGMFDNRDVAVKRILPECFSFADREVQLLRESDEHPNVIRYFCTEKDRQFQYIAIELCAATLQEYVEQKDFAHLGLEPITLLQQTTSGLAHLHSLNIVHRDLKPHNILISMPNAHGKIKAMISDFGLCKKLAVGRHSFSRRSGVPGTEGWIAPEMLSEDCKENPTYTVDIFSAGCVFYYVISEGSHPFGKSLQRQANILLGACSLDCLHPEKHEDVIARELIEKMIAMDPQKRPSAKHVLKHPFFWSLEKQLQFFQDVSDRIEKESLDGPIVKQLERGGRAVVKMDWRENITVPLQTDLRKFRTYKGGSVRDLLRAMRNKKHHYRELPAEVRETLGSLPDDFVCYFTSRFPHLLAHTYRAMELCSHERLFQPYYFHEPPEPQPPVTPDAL
# T1 sequence (O75460 547-977): as above
"IC50 [1, 3]","IC50 [1, 4]","IC50 [2, 5]","IC50 [2, 6]",SMILES,further results
,,,,Cc1ccc2c(NS(=O)(=O)c3ccccc3Cl)cccc2c1Oc1ncccc1-c1ccnc(N[C@H]2CCCNC2)n1 [AMG18],"inhibition(%) ([1]; p-IRE1a, 5.55556 μM): 100.91% and 100.40% and 100.53% and 99.85%; inhibition(%) ([1]; p-IRE1a, 16.6667 μM): 99.21% and 99.54% and 99.79% and 99.45%; inhibition(%) ([1]; p-IRE1a, 50 μM): 99.53% and 98.55% and 99.75% and 99.47%; inhibition(%) ([2]; IRE1a, 5.55556 μM): 93.95% and 92.37% and 91.58% and 94.22%; inhibition(%) ([2]; IRE1a, 16.6667 μM): 92.87% and 92.05% and 91.66% and 92.11%; inhibition(%) ([2]; IRE1a, 50 μM): 89.29% and 89.80% and 92.49% and 93.01%"
1.96 µM,2.09 µM and 2.1 µM and 1.67 µM,1.46 µM,0.869 µM and 1.33 µM and 2.17 µM,COc1ccc2c(c1)c(CCC(=O)O)c(C)n2C(=O)c1ccc(Br)cc1 [IA02],
0.82 µM,1.59 µM and 0.458 µM and 0.394 µM,0.53 µM,0.337 µM and 1.04 µM and 0.203 µM,COc1ccc2c(c1)c(CCC(=O)O)c(C)n2C(=O)c1ccccn1 [IA04],
0.61 µM,1.08 µM and 0.593 µM and 0.159 µM,0.76 µM,0.589 µM and 0.971 µM and 1.1 µM and 0.378 µM,COc1ccc2c(c1)c(CCC(=O)O)c(C)n2C(=O)c1ccc2c(c1)C(=O)c1ccccc1C2=O [IA32],
0.06 µM and 0.0561 µM,0.105 µM and 0.045 µM and 0.018 µM,0.1 µM,0.0398 µM and 0.135 µM and 0.138 µM,COc1ccc2c(c1)c(CCC(=O)O)c(C)n2C(=O)c1cccc(C(F)(F)F)c1 [IA36],
,,,,Cc1c(CCC(=O)O)c2ccccc2n1C(=O)c1cccc(C#N)c1 [IA41],"IC50 [1, 7]: 4.9 µM and 0.768 µM; IC50 [1, 8]: 2.84 µM; IC50 [2, 9]: 2.32 µM and 4.34 µM and 2.12 µM; IC50 [2, 10]: 2.93 µM"
,,,,Cc1c(CCC(=O)O)c2ccccc2n1C(=O)c1cccs1 [IA42],"IC50 [1, 7]: 4.45 µM and 1.1 µM; IC50 [1, 8]: 2.77 µM; IC50 [2, 9]: 1.96 µM and 3.27 µM and 1.05 µM; IC50 [2, 10]: 2.09 µM"
,,,,Cc1c(CCC(=O)O)c2cc(Br)ccc2n1C(=O)c1cccs1 [IA44],"IC50 [1, 7]: 0.168 µM and 0.0345 µM; IC50 [1, 8]: 0.1 µM; IC50 [2, 9]: 0.09 µM and 0.0912 µM and 0.0591 µM; IC50 [2, 10]: 0.08 µM"
,,,,Cc1c(CCC(=O)O)c2cc(F)ccc2n1C(=O)c1cccc(C#N)c1 [IA47],"IC50 [1, 7]: 5.26 µM and 7.8 µM and 3.64 µM; IC50 [1, 8]: 5.57 µM; IC50 [2, 9]: 4.7 µM and 0.983 µM and 3.62 µM and 1.97 µM; IC50 [2, 10]: 2.82 µM"
,,,,Cc1c(CCC(=O)O)c2cc(F)ccc2n1C(=O)c1cccs1 [IA48],"IC50 [1, 7]: 1.07 µM and 0.419 µM and 0.737 µM; IC50 [1, 8]: 0.74 µM; IC50 [2, 9]: 0.542 µM and 0.383 µM and 0.121 µM; IC50 [2, 10]: 0.35 µM"
,,,,Cc1c(CCC(=O)O)c2cc(Cl)ccc2n1C(=O)c1cccs1 [IA60],"IC50 [1, 7]: 0.244 µM and 0.461 µM and 0.0907 µM; IC50 [1, 8]: 0.27 µM; IC50 [2, 9]: 0.117 µM and 0.0909 µM and 0.105 µM; IC50 [2, 10]: 0.1 µM"
,,,,Cc1c(CCC(=O)O)c2cc(Cl)ccc2n1C(=O)c1cccc(C#N)c1 [IA63],"IC50 [1, 7]: 0.204 µM and 0.404 µM and 0.0789 µM; IC50 [1, 8]: 0.23 µM; IC50 [2, 9]: 0.101 µM and 0.0841 µM and 0.0981 µM; IC50 [2, 10]: 0.09 µM"
0.2 µM,0.124 µM and 0.115 µM and 0.353 µM,0.14 µM,0.213 µM and 0.125 µM and 0.0827 µM,COc1ccc2c(c1)c(CCC(=O)O)c(C)n2C(=O)c1ccc(F)cc1 [IA66],
0.73 µM,0.505 µM and 1.39 µM and 0.29 µM,0.32 µM,0.473 µM and 0.234 µM and 0.244 µM,COc1ccc2c(c1)c(CCC(=O)O)c(C)n2C(=O)c1ccc(N(C)C)cc1 [IA70],
> 20 µM,,> 20 µM,,COc1ccc2[nH]c(C)c(CCC(=O)O)c2c1 [IA72],"p-IRE1α IC50 [1, 11]: IC₅₀ not reached; IRE1α IC50 [2, 11]: IC₅₀ not reached"
1.15 µM,1.47 µM and 1.15 µM and 0.817 µM,0.86 µM,1.18 µM and 0.924 µM and 0.476 µM,COc1ccc2c(c1)c(CCC(=O)O)c(C)n2C(=O)c1ccc(-c2ccccc2)cc1 [IA75],
> 20 µM,,> 20 µM,,COc1ccc2c(c1)c(CCC(=O)O)c(C)n2C(=O)N(C)C [IA76],"p-IRE1α IC50 [1, 11]: IC₅₀ not reached; IRE1α IC50 [2, 11]: IC₅₀ not reached"
> 20 µM,,> 20 µM,,COc1ccc2c(c1)c(CCC(=O)O)c(C)n2C(=O)N1CCOCC1 [IA77],"p-IRE1α IC50 [1, 11]: IC₅₀ not reached; IRE1α IC50 [2, 11]: IC₅₀ not reached"
5.61 µM and 5.6 µM,5.64 µM and 7.33 µM and 3.85 µM,2.04 µM,1.9 µM and 2.23 µM and 1.98 µM,COc1ccc2c(c1)c(CCC(=O)O)c(C)n2C(=O)C1CCOCC1 [IA81],
1.74 µM,1.51 µM and 2.54 µM and 1.17 µM,0.83 µM,0.703 µM and 1.25 µM and 0.531 µM,COc1ccc2c(c1)c(CCC(=O)O)c(C)n2C(=O)C1CC1 [IA84],
> 20 µM,,69.6 µM,33.4 µM and 89.3 µM and 86 µM,COc1ccc2c(c1)c(CCC(=O)O)c(C)n2C(=O)N1CCCCC1 [IA89],"p-IRE1α IC50 [1, 11]: IC₅₀ not reached"
> 20 µM,,> 20 µM,,COc1ccc2c(c1)c(CCC(=O)O)c(C)n2C(=O)C12CCC(C)(C(=O)O1)C2(C)C (stereo not drawn) [IA92],"p-IRE1α IC50 [1, 11]: IC₅₀ not reached; IRE1α IC50 [2, 11]: IC₅₀ not reached"
0.34 µM,0.198 µM and 0.428 µM and 0.403 µM,0.18 µM,0.141 µM and 0.211 µM and 0.201 µM,COc1ccc2c(c1)c(CCC(=O)O)c(C)n2C(=O)c1ccncc1 [IA93],
0.2 µM,0.083 µM and 0.113 µM and 0.398 µM,0.17 µM,0.0557 µM and 0.0537 µM and 0.388 µM,COc1ccc(C(=O)n2c(C)c(CCC(=O)O)c3cc(OC)ccc32)cc1 [IA96],
1.05 µM,0.446 µM and 0.627 µM and 2.07 µM,0.34 µM,0.173 µM and 0.171 µM and 0.675 µM,Cc1c(CCC(=O)O)c2ccccc2n1C(=O)c1ccccc1 [IA104],
0.2 µM,205 nM (2×) and 190 nM,0.24 µM,0.23 µM and 0.198 µM and 0.292 µM,Cc1c(CCC(=O)O)c2cc(C(C)C)ccc2n1C(=O)c1ccccc1 [IA110],
0.72 µM,0.252 µM and 1.12 µM and 0.788 µM,0.42 µM,0.18 µM and 0.67 µM and 0.418 µM,Cc1c(CCC(=O)O)c2cc(F)ccc2n1C(=O)c1ccccc1 [IA137],
,,,,"O=C(O)Cc1c[nH]c2ccccc12 [auxin, reference compound]","IRE1α inhibition% ([2]; FRET assay at 50 μM, mean (± SEM)): ≤ 50%"
